From patent US20130252930A1 (BIOMARIN PHARMACEUTICAL INC., priority 2010, published 2013)
Read-outs that look alike come from different tables or passages of the source.

Tests used:
[1] = target: T1, CYP17 (human testicular microsome) (Homo sapiens, UniProt P05093); experiment: CYP17 enzymatic assay (% inhibition at 10 nM), version 1 (Biological Example 5); type: biochemical
T1 construct: using microsomal fraction from human testis (Celsis Cat #S00110) as the enzyme source; tissue Celsis S00110; host or cells: human testis microsomal fraction
T1 sequence (P05093 1-508): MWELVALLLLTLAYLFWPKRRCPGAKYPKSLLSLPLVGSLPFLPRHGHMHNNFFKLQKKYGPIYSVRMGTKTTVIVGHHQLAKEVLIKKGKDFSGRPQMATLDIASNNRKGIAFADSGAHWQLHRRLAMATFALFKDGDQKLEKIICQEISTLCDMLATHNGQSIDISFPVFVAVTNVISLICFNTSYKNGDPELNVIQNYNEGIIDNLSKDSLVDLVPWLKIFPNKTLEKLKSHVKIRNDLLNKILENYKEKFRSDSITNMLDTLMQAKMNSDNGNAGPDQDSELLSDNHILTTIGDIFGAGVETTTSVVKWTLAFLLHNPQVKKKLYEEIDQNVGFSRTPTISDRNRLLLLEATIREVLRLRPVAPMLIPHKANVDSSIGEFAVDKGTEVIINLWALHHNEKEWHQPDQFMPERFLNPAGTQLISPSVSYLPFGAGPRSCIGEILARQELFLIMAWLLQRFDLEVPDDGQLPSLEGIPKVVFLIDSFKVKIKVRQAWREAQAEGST

[2] = Human liver microsome stability assay (Biological Example 8b); conditions: liver microsomes, pH 7.4
Experimental: The reaction was started with addition of excess NADPH (5 mg/mL, 15 μL in 0.1 M potassium phosphate buffer, 1.0 mM EDTA, pH 7.4), the total volume is 45 μL (compound final concentration was 1 μM). […] 50 μL of the supernatant was transferred from each well into a 96-well sample plate containing 50 μL of ultra-pure water (Millipore) for LC-MS/MS analysis.

[3] = tested on: rat Cyp11B enzyme (rat adrenal mitochondria); experiment: CYP11B enzymatic assay (% inhibition at 100 nM) (Biological Example 9); type: biochemical; conditions: for CYP11B enzymatic assay % inhibition at 100 nM (Biological Example No. 9) / Biological Example No. 9: CYP11B enzymatic assay % inhibition at 100 nM: compound at 100 nM
Experimental: Adrenals excised from Sprague Dawley rats were homogenized, and mitochondria fraction were prepared by a series of centrifugation as described in Shuji Ohno, et al. J. of Steroid Biochemistry & Molecular Biology 2002, 80, 355-363. Prepared mitochondria protein was washed and resuspended in Buffer B (0.21 M mannitol, 70 mM sucrose, 5 mM MgCl2, 0.5 mM CaCl2, 20 mM Tris-HCl (pH 7.4) and 1 mM DTT, […]). The protein concentration was determined by BCA assay and stored as 10 μL aliquots at −80° C.
The rat Cyp11B enzyme assay was performed in 96-well plates. Typical assays were carried out in total 50 μL volume that included test compounds at 100 nM concentration, 1× Buffer B, 0.5 mM NADPH, 0.1 μM 11-deoxycortisol, and 2 μL of prepared rat adrenal mitochondria (added last). Reaction without test compound served as positive control and reaction without NADPH served as negative control. Reactions were allowed to incubate at 37° C. for 60 min with gentle shaking. The reaction was stopped by directly applying the enzymatic reaction mixture (1:5 diluted in ELISA assay buffer) to ELISA plate for evaluation of cortisol concentration according to manufacturer's protocol (Assay Design).
The mean absorbance value for each sample was used to determine the corresponding concentration from the standard curve. Amount of cortisol in the negative control (reaction that dis not include NADPH) was subtracted from total cortisol. Percent inhibition (inhibition %) of the compound was calculated using normalized cortisol concentration based on following formula: 100−([Cortisol] of compound/[Cortisol] of positive control *100).

[4] = target: T1, CYP17 (human testicular microsome); experiment: CYP17 enzymatic assay (IC50) (Biological Example 4); type: biochemical; conditions: human testicular microsome
[5] = target: T1, CYP17 (human testicular microsome); experiment: CYP17 enzymatic assay (% inhibition at 1 nM) (Biological Example 12); type: biochemical; conditions: compound at 1 nM
[6] = compound at 10 nM, read-out: CYP17 enzymatic assay % inhibition at 10 nM (Biological Example No. 5)
[7] = read-out: CYP17 enzymatic assay IC50 (Biological Example No. 4)
[8] = read-out: CYP17 enzymatic assay % inhibition at 1 nM (Biological Example No. 12)
[9] = read-out: Biological Example No. 12: CYP17 enzymatic assay % inhibition at 1 nM

Which inhibition at 0.01 µM [1, 6] does the source give for `COc1cncc(C2=CCC3C4CC=C5N(C)C(=O)CCC[C@]5(C)C4CC[C@]23C)c1` (stereo partly drawn) [Compound 181, (5aR,7aS)-8-(5-methoxypyridin-3-yl)-1,5a,7a-trimethyl-3,4,5,5a,5b,6,7,7a,10,10a,10b,11-dodecahydrocyclopenta[5,6]naphtho[2,1-b]azepin-2(1H)-one] here?
The inhibition at 0.01 µM was > 80%.

And the half-life at 1 μM [2]?
Its half-life at 1 μM is 1 to 50 min.

And the “CYP11B enzymatic assay % inhibition at 100 nM (Biological Example No. 9)” value [3]?
Its value is “U (U means the compound had a percent inhibition of greater than or equal to 32%)”.

With `COc1cncc(C2=CCC3C4CC=C5N(C)C(=O)C[C@]5(C)C4CC[C@]23C)c1` (stereo partly drawn) [Compound 187, (3aR,5aS)-6-(5-methoxypyridin-3-yl)-1,3a,5a-trimethyl-3,3a,3b,4,5,5a,8,8a,8b,9-decahydroindeno[5,4-e]indol-2(1H)-one] as the compound, how does the IC50 [4, 7] read?
The IC50 was < 11 nM.

And the inhibition at 0.001 µM [5, 8]?
Its inhibition at 0.001 µM is > 50%.

What about the half-life at 1 μM [2] of the same compound?
The half-life at 1 μM was 1 to 50 min.

And the “CYP11B enzymatic assay % inhibition at 100 nM (Biological Example No. 9)” value [3]?
The value was “T (T means the compound had a percent inhibition of less than 32% when tested at 100 nM)”.

What does the source list for `CN1C(=O)CCC[C@@]2(C)C1=CCC1C2CC[C@]2(C)C(c3cccnc3)=CCC12` (stereo partly drawn) [Compound 180, (5aR,7aS)-1,5a,7a-trimethyl-8-(pyridin-3-yl)-3,4,5,5a,5b,6,7,7a,10,10a,10b,11-dodecahydrocyclopenta[5,6]naphtho[2,1-b]azepin-2(1H)-one]?
IC50 [4, 7]: < 11 nM; inhibition at 0.01 µM [1, 6]: > 80%; half-life at 1 μM [2]: 1 to 50 min; CYP11B enzymatic assay % inhibition at 100 nM (Biological Example No. 9) [3]: U (U means the compound had a percent inhibition of greater than or equal to 32%)

For `CN1C(=O)C[C@@]2(C)C1=CCC1C2CC[C@]2(C)C(c3cccnc3)=CCC12` (stereo partly drawn) [Compound 185, (3aR,5aS)-1,3a,5a-trimethyl-6-(pyridin-3-yl)-3,3a,3b,4,5,5a,8,8a,8b,9-decahydroindeno[5,4-e]indol-2(1H)-one], which IC50 [4, 7] is on record?
The IC50 was < 11 nM.

What about the inhibition at 0.001 µM [5, 8] of the same compound?
Its inhibition at 0.001 µM is > 50%.

And the “CYP11B enzymatic assay % inhibition at 100 nM (Biological Example No. 9)” value [3]?
The value was “U (U means the compound had a percent inhibition of greater than or equal to 32%)”.

For `CN1C(=O)CC[C@@]2(C)C1=CC[C@@H]1[C@@H]2CC[C@]2(C)C(n3ccnc3)=CC[C@@H]12` [Compound 183, (4aR,6aS)-7-(1H-imidazol-1-yl)-1,4a,6a-trimethyl-4,4a,4b,5,6,6a,9,9a,9b,10-decahydro-1H-indeno[5,4-f]quinolin-2(3H)-one], which inhibition at 0.01 µM [1, 6] is on record?
Its inhibition at 0.01 µM is 50 to 80%.

What about the “CYP11B enzymatic assay % inhibition at 100 nM (Biological Example No. 9)” value [3] of the same compound?
The value was “U (U means the compound had a percent inhibition of greater than or equal to 32%)”.

Which results are given for `COC(=O)c1cncn1C1=CCC2C3CC=C4C[C@@H](O)CC[C@]4(C)C3CC[C@]12C` (stereo partly drawn) [Compound 476, methyl 1-((3S,10R,13S)-3-hydroxy-10,13-dimethyl-2,3,4,7,8,9,10,11,12,13,14,15-dodecahydro-1H-cyclopenta[a]phenanthren-17-yl)-1H-imidazole-5-carboxylate]?
inhibition at 0.001 µM [5, 9]: 10 to 50%; Biological Example No. 9: CYP11B enzymatic assay % inhibition at 100 nM [3]: na (“na” means the compound was not active under the conditions tested)

For `Cc1cncc(C2=CCC3C4CC=C5N(C)C(=O)C[C@]5(C)C4CC[C@]23C)c1` (stereo partly drawn) [Compound 188, (3aR,5aS)-1,3a,5a-trimethyl-6-(5-methylpyridin-3-yl)-3,3a,3b,4,5,5a,8,8a,8b,9-decahydroindeno[5,4-e]indol-2(1H)-one], which inhibition at 0.001 µM [5, 8] is on record?
The inhibition at 0.001 µM was 10 to 50%.

And the “CYP11B enzymatic assay % inhibition at 100 nM (Biological Example No. 9)” value [3]?
Its value is “T (T means the compound had a percent inhibition of less than 32% when tested at 100 nM)”.

Which inhibition at 0.001 µM [5, 9] does the source give for `CN1C(=O)CC[C@@]2(C)C1=CC[C@@H]1[C@@H]2CC[C@]2(C)C(n3cncc3C#N)=CC[C@@H]12` [Compound 433, 1-((4aR,6aS)-1,4a,6a-trimethyl-2-oxo-2,3,4,4a,4b,5,6,6a,9,9a,9b,10-dodecahydro-1H-indeno[5,4-f]quinolin-7-yl)-1H-imidazole-5-carbonitrile] here?
Its inhibition at 0.001 µM is < 10%.

And the “Biological Example No. 9: CYP11B enzymatic assay % inhibition at 100 nM” value [3]?
Its value is “T (T means the compound had a percent inhibition of less than 32% when tested at 100 nM)”.

For `CCOc1cncc(C2=CCC3C4CC=C5N(C)C(=O)C[C@]5(C)C4CC[C@]23C)c1` (stereo partly drawn) [Compound 189, (3aR,5aS)-6-(5-ethoxypyridin-3-yl)-1,3a,5a-trimethyl-3,3a,3b,4,5,5a,8,8a,8b,9-decahydroindeno[5,4-e]indol-2(1H)-one], which inhibition at 0.001 µM [5, 8] is on record?
The inhibition at 0.001 µM was 10 to 50%.

What about the “CYP11B enzymatic assay % inhibition at 100 nM (Biological Example No. 9)” value [3] of the same compound?
Its value is “U (U means the compound had a percent inhibition of greater than or equal to 32%)”.

For `Cc1cncc(C2=CCC3C4CC=C5N(C)C(=O)CCC[C@]5(C)C4CC[C@]23C)c1` (stereo partly drawn) [Compound 182, (5aR,7aS)-1,5a,7a-trimethyl-8-(5-methylpyridin-3-yl)-3,4,5,5a,5b,6,7,7a,10,10a,10b,11-dodecahydrocyclopenta[5,6]naphtho[2,1-b]azepin-2(1H)-one], which inhibition at 0.01 µM [1, 6] is on record?
Its inhibition at 0.01 µM is 50 to 80%.

What about the “CYP11B enzymatic assay % inhibition at 100 nM (Biological Example No. 9)” value [3] of the same compound?
Its value is “U (U means the compound had a percent inhibition of greater than or equal to 32%)”.

For `CN1C(=O)CC[C@@]2(C)C1=CCC1C2CC[C@]2(C)C(c3cncc(F)c3)=CCC12` (stereo partly drawn) [Compound 428, (4aR,6aS)-7-(5-fluoropyridin-3-yl)-1,4a,6a-trimethyl-4,4a,4b,5,6,6a,9,9a,9b,10-decahydro-1H-indeno[5,4-f]quinolin-2(3H)-one], which inhibition at 0.001 µM [5, 9] is on record?
The inhibition at 0.001 µM was 10 to 50%.

And the “Biological Example No. 9: CYP11B enzymatic assay % inhibition at 100 nM” value [3]?
Its value is “U (U means the compound had a percent inhibition of greater than or equal to 32%)”.

Which results are given for `C[C@]12CCCN(S(C)(=O)=O)CC1CC[C@@H]1[C@@H]2CC[C@]2(C)C(n3ccnc3)=CC[C@@H]12` (stereo partly drawn) [Compound 437, (5aR,7aS)-8-(1H-imidazol-1-yl)-5a,7a-dimethyl-2-(methylsulfonyl)-1,2,3,4,5,5a,5b,6,7,7a,10,10a,10b,11,12,12a-hexadecahydrocyclopenta[5,6]naphtho[2,1-c]azepine]?
IC50 ([4]; read-out: Biological Example No. 4: CYP17 enzymatic assay IC50): > 25 nM; Biological Example No. 9: CYP11B enzymatic assay % inhibition at 100 nM [3]: U (U means the compound had a percent inhibition of greater than or equal to 32%)

Which inhibition at 0.01 µM ([1]; 10 nM compound, DHEA by ELISA, read-out: Biological Example No. 5: CYP17 percent inhibition at 10 nM (version 1)) does the source give for `CC(=O)O[C@H]1CC[C@@]2(C)C(=CC[C@H]3C4=CC=C(c5cccnc5)[C@@]4(C)CC[C@@H]32)C1` [Compound 78, (3S,10R,13S)-10,13-dimethyl-17-(pyridin-3-yl)-2,3,4,7,8,9,10,11,12,13-decahydro-1H-cyclopenta[a]phenanthren-3-yl acetate] here?
Its inhibition at 0.01 µM is 1 to 50%.

And the “Biological Example No. 9: CYP11B percent inhibition at 100 nM” value ([3]; 100 nM compound, cortisol by ELISA)?
Its value is “U (U means the compound had a percent inhibition of greater than or equal to 32%)”.

For `CN1C(=O)C[C@@]2(C)C1=CCC1C2CC[C@]2(C)C(n3ccnc3)=CCC12` (stereo partly drawn) [Compound 186, (3aR,5aS)-6-(1H-imidazol-1-yl)-1,3a,5a-trimethyl-3,3a,3b,4,5,5a,8,8a,8b,9-decahydroindeno[5,4-e]indol-2(1H)-one], which inhibition at 0.001 µM [5, 8] is on record?
The inhibition at 0.001 µM was 10 to 50%.

What about the “CYP11B enzymatic assay % inhibition at 100 nM (Biological Example No. 9)” value [3] of the same compound?
The value was “U (U means the compound had a percent inhibition of greater than or equal to 32%)”.

Which inhibition at 0.001 µM [5, 8] does the source give for `CC(=O)N1CCC[C@@]2(C)[C@@H](CC[C@@H]3[C@@H]2CC[C@]2(C)C(n4ccnc4)=CC[C@@H]32)C1` [Compound 443, 1-((5aR,5bS,7aS,10aS,10bR,12aR)-8-(1H-imidazol-1-yl)-5a,7a-dimethyl-3,4,5,5a,5b,6,7,7a,10,10a,10b,11,12,12a-tetradecahydrocyclopenta[5,6]naphtho[2,1-c]azepin-2(1H)-yl)ethanone] here?
Its inhibition at 0.001 µM is 10 to 50%.

And the “CYP11B enzymatic assay % inhibition at 100 nM (Biological Example No. 9)” value [3]?
Its value is “U (U means the compound had a percent inhibition of greater than or equal to 32%)”.
